Source: ChEMBL document CHEMBL5113427, “Bioevaluation of a dual PI3K/HDAC inhibitor for the treatment of diffuse large B-cell lymphoma” (Bioorg Med Chem Lett, 2022)
Calls of active or inactive are those of the source. No cut-off for these calls is given here.

Key:
DOHH-2 [1] = assay: Induction of cell cycle arrest in human DOHH-2 cells assessed as accumulation at G2/M phase in presence of pictilisib measured by flow cytometry analysis; assay type: functional, cell-based
DOHH-2 [2] = assay: Induction of apoptosis in human DOHH-2 cells measured by flow cytometry analysis; assay type: functional, cell-based
DOHH-2 [3] = assay: Induction of cell cycle arrest in human DOHH-2 cells assessed as accumulation at G2/M phase measured by flow cytometry analysis; assay type: functional, cell-based
OCI-Ly3 [4] = assay: Induction of apoptosis in human OCILY3 cells measured by flow cytometry analysis; assay type: functional, cell-based
DOHH-2 [5] = assay: Induction of cell cycle arrest in human DOHH-2 cells assessed as accumulation at S phase measured by flow cytometry analysis; assay type: functional, cell-based
[6] = target: T1, Histone deacetylase (Homo sapiens) (UniProt Q13547+O15379+Q9UBN7+Q92769+Q9UQL6+Q8WUI4+Q9BY41+Q96DB2+P56524+Q9UKV0+Q969S8); assay: Inhibition of HDAC in human OCILY3 cells assessed as down-regulation of STAT3 phosphorylation at Y705 residue at 0.5 to 12 hrs measured by Western blot analysis; assay type: cell-based; settings: time 0.5-12 hrs
[7] = target: Phosphatidylinositol 4,5-bisphosphate 3-kinase catalytic subunit alpha isoform (Homo sapiens) (UniProt P42336); assay: Inhibition of PI3Kalpha in human OCILY3 cells assessed as decrease in AKT phosphorylation at Thr308 residue at 0.01 to 1 uM measured by western blot analysis; assay type: cell-based; settings: dose 0.01-1 µM
SU-DHL10 = assay: Antiproliferative activity against human SU-DHL-10 cells measured after 4 days by Cell Titer Glo Luminescent Cell Viability Assay; assay type: functional, cell-based; settings: SU-DHL10, 96 h
[8] = target: T1, Histone deacetylase (Homo sapiens); assay: Inhibition of HDAC in human DOHH-2 cells assessed as Down-regulation of STAT3 phosphorylation at Y705 residue at 0.01 to 1 uM measured by Western blot analysis; assay type: cell-based; settings: dose 0.01-1 µM
SUD4 [9] = assay: Antiproliferative activity against human SU-DHL-4 cells measured after 4 days by Cell Titer Glo Luminescent Cell Viability Assay; assay type: functional, cell-based; settings: SU-DHL-4, 96 h
[10] = target: T1, Histone deacetylase (Homo sapiens); assay: Inhibition of HDAC in human OCILY3 cells assessed as […] level at 0.5 to 12 hrs measured by Western blot analysis; assay type: cell-based; settings: time 0.5-12 hrs
[11] = target: T1, Histone deacetylase (Homo sapiens); assay: Inhibition of HDAC in human DOHH-2 cells assessed as down-regulation of STAT3 phosphorylation at Y705 residue at 0.5 to 12 hrs measured by Western blot analysis; assay type: cell-based; settings: time 0.5-12 hrs
SU-DHL-8 = assay: Antiproliferative activity against human SU-DHL-8 cells measured after 4 days by Cell Titer Glo Luminescent Cell Viability Assay; assay type: functional, cell-based; settings: SU-DHL-8, 96 h
SU-DHL-6 = assay: Antiproliferative activity against human SU-DHL-6 cells measured after 4 days by Cell Titer Glo Luminescent Cell Viability Assay; assay type: functional, cell-based; settings: SU-DHL-6, 96 h
[12] = target: T1, Histone deacetylase (Homo sapiens); assay: Inhibition of HDAC in human OCILY3 cells assessed as increase in Ac-p53 levels at 0.01 to 1 uM measured by Western blot analysis; assay type: cell-based; settings: dose 0.01-1 µM
[13] = target: T1, Histone deacetylase (Homo sapiens); assay: Inhibition of HDAC in human DOHH-2 cells assessed as increase in Ac-H3 levels at 0.01 to 1 uM measured by Western blot analysis; assay type: cell-based; settings: dose 0.01-1 µM
OCI-Ly3 [14] = assay: Induction of apoptosis in human OCILY3 cells at 0.01 to 1 uM measured by flow cytometry analysis; assay type: functional, cell-based; settings: dose 0.01-1 µM, DDE = dose-dependent effect
WSUDLCL2 = assay: Antiproliferative activity against human WSUDLCL2 cells measured after 4 days by Cell Titer Glo Luminescent Cell Viability Assay; assay type: functional, cell-based; settings: WSUDLCL2, 96 h
[15] = target: T1, Histone deacetylase (Homo sapiens); assay: Inhibition of HDAC in human OCILY3 cells assessed as Down-regulation of STAT3 phosphorylation at Y705 residue at 0.01 to 1 uM measured by Western blot analysis; assay type: cell-based; settings: dose 0.01-1 µM
[16] = target: T1, Histone deacetylase (Homo sapiens); assay: Inhibition of HDAC in human DOHH-2 cells assessed as […] level at 0.5 to 12 hrs measured by Western blot analysis; assay type: cell-based; settings: time 0.5-12 hrs
SU-DHL-5 = assay: Antiproliferative activity against human SU-DHL-5 cells measured after 4 days by Cell Titer Glo Luminescent Cell Viability Assay; assay type: functional, cell-based; settings: SU-DHL-5, 96 h
SUD4 [17] = assay: Antitumour activity against CM-Dil labeled human SU-DHL-4 cells xenografted in zebrafish embryo assessed as decrease in tumor growth at 3 uM measured by fluorescence based assay; assay type: functional, cell-based
[18] = target: T1, Histone deacetylase (Homo sapiens); assay: Inhibition of HDAC in human OCILY3 cells assessed as effect on pS6 levels at 0.01 to 1 uM measured by Western blot analysis; assay type: cell-based; settings: dose 0.01-1 µM
KARPAS-422 = assay: Antiproliferative activity against human KARPAS-422 cells measured after 4 days by Cell Titer Glo Luminescent Cell Viability Assay; assay type: functional, cell-based; settings: KARPAS-422, 96 h
OCI-Ly3 [19] = assay: Induction of apoptosis in human OCILY3 cells assessed as upregulation of cleaved-PARP at 0.01 to 1 uM measured by Western blot analysis; assay type: functional, cell-based; settings: dose 0.01-1 µM
[20] = target: Phosphatidylinositol 4,5-bisphosphate 3-kinase catalytic subunit alpha isoform (Homo sapiens) (UniProt P42336); assay: Inhibition of PI3Kalpha in human OCILY3 cells assessed as decrease in AKT phosphorylation at 0.5 to 1 hrs measured by western blot analysis; assay type: cell-based; settings: time 0.5-1 hrs
[21] = target: T1, Histone deacetylase (Homo sapiens); assay: Inhibition of HDAC in human DOHH-2 cells assessed as effect on pS6 levels at 0.01 to 1 uM measured by Western blot analysis; assay type: cell-based; settings: dose 0.01-1 µM
OCI-LY19 = assay: Antiproliferative activity against human OCILY19 cells measured after 4 days by Cell Titer Glo Luminescent Cell Viability Assay; assay type: functional, cell-based; settings: OCI-LY19, 96 h
[22] = target: Phosphatidylinositol 4,5-bisphosphate 3-kinase catalytic subunit alpha isoform (Homo sapiens) (UniProt P42336); assay: Inhibition of PI3Kalpha in human OCILY3 cells assessed as decrease in AKT phosphorylation at Ser473 residue at 0.01 to 1 uM measured by western blot analysis; assay type: cell-based; settings: dose 0.01-1 µM
DOHH-2 [23] = assay: Antiproliferative activity against human DOHH-2 cells measured after 4 days by Cell Titer Glo Luminescent Cell Viability Assay; assay type: functional, cell-based; settings: DOHH-2, 96 h
[24] = Antiproliferative activity against human HBL1 cells measured after 4 days by Cell Titer Glo Luminescent Cell Viability Assay; assay type: functional, cell-based; settings: HBL1, 96 h
DOHH-2 [25] = assay: Induction of apoptosis in human DOHH-2 cells assessed as upregulation of cleaved-PARP at 0.01 to 1 uM measured by Western blot analysis; assay type: functional, cell-based; settings: dose 0.01-1 µM
Pfeiffer = assay: Antiproliferative activity against human Pfeiffer cells measured after 4 days by Cell Titer Glo Luminescent Cell Viability Assay; assay type: functional, cell-based; settings: 96 h
U2932 = assay: Antiproliferative activity against human U2932 cells measured after 4 days by Cell Titer Glo Luminescent Cell Viability Assay; assay type: functional, cell-based; settings: U2932, 96 h
[26] = target: T1, Histone deacetylase (Homo sapiens); assay: Inhibition of HDAC in human OCILY3 cells assessed as decrease in p-S6 level at 0.5 to 12 hrs measured by Western blot analysis; assay type: cell-based; settings: time 0.5-12 hrs
[27] = target: T1, Histone deacetylase (Homo sapiens); assay: Inhibition of HDAC in human DOHH-2 cells assessed as increase in Ac-p53 levels at 0.01 to 1 uM measured by Western blot analysis; assay type: cell-based; settings: dose 0.01-1 µM
[28] = target: Phosphatidylinositol 4,5-bisphosphate 3-kinase catalytic subunit alpha isoform (Homo sapiens) (UniProt P42336); assay: Inhibition of PI3Kalpha in human DOHH-2 cells assessed as decrease in AKT phosphorylation at 0.01 to 1 uM measured by western blot analysis; assay type: cell-based; settings: dose 0.01-1 µM
OCI-Ly7 = assay: Antiproliferative activity against human OCILY7 cells measured after 4 days by Cell Titer Glo Luminescent Cell Viability Assay; assay type: functional, cell-based; settings: OCI-Ly7, 96 h
[29] = target: T1, Histone deacetylase (Homo sapiens); assay: Inhibition of HDAC in human DOHH-2 cells assessed as decrease in p-S6 level at 0.5 to 12 hrs measured by Western blot analysis; assay type: cell-based; settings: time 0.5-12 hrs
DOHH-2 [30] = assay: Induction of apoptosis in human DOHH-2 cells assessed as upregulation of cleaved-caspase3 at 0.01 to 1 uM measured by Western blot analysis; assay type: functional, cell-based; settings: dose 0.01-1 µM
[31] = target: Phosphatidylinositol 4,5-bisphosphate 3-kinase catalytic subunit alpha isoform (Homo sapiens) (UniProt P42336); assay: Inhibition of PI3Kalpha in human DOHH-2 cells assessed as decrease in AKT phosphorylation at 0.5 to 1 hrs measured by western blot analysis; assay type: cell-based; settings: time 0.5-1 hrs
DOHH-2 [32] = assay: Induction of apoptosis in human DOHH-2 cells at 0.01 to 1 uM measured by flow cytometry analysis; assay type: functional, cell-based; settings: dose 0.01-1 µM, DDE = dose-dependent effect
OCI-Ly3 [33] = assay: Induction of apoptosis in human OCILY3 cells assessed as upregulation of cleaved-caspase3 at 0.01 to 1 uM measured by Western blot analysis; assay type: functional, cell-based; settings: dose 0.01-1 µM
WSU-NHL = assay: Antiproliferative activity against human WSU-NHL cells measured after 4 days by Cell Titer Glo Luminescent Cell Viability Assay; assay type: functional, cell-based; settings: 96 h
OCI-Ly3 [34] = assay: Antiproliferative activity against human OCILY3 cells measured after 4 days by Cell Titer Glo Luminescent Cell Viability Assay; assay type: functional, cell-based; settings: OCI-Ly3, 96 h
Toledo = assay: Antiproliferative activity against human Toledo cells measured after 4 days by Cell Titer Glo Luminescent Cell Viability Assay; assay type: functional, cell-based; settings: 96 h
DOHH-2 [35] = assay: Induction of cell cycle arrest in human DOHH-2 cells assessed as accumulation at S phase at 0.01 to 1 uM measured by flow cytometry analysis; assay type: functional, cell-based; settings: dose 0.01-1 µM, DDE = dose-dependent effect
[36] = target: T1, Histone deacetylase (Homo sapiens); assay: Inhibition of HDAC in human OCILY3 cells assessed as increase in Ac-H3 levels at 0.01 to 1 uM measured by Western blot analysis; assay type: cell-based; settings: dose 0.01-1 µM
[37] = target: T1, Histone deacetylase (Homo sapiens); assay: Inhibition of HDAC in human DOHH-2 cells assessed as effect on pS6 levels at 10 uM measured by Western blot analysis; assay type: cell-based
[38] = target: T1, Histone deacetylase (Homo sapiens); assay: Inhibition of HDAC in human OCILY3 cells assessed as Down-regulation of STAT3 phosphorylation at Y705 residue at 10 uM measured by Western blot analysis; assay type: cell-based
[39] = target: T1, Histone deacetylase (Homo sapiens); assay: Inhibition of HDAC in human OCILY3 cells assessed as effect on pS6 levels at 10 uM measured by Western blot analysis; assay type: cell-based
[40] = target: T1, Histone deacetylase (Homo sapiens); assay: Inhibition of HDAC in human DOHH-2 cells assessed as Down-regulation of STAT3 phosphorylation at Y705 residue at 10 uM measured by Western blot analysis; assay type: cell-based

Chain of Phosphatidylinositol 4,5-bisphosphate 3-kinase catalytic subunit alpha isoform (Homo sapiens) (P42336 whole entry, canonical isoform): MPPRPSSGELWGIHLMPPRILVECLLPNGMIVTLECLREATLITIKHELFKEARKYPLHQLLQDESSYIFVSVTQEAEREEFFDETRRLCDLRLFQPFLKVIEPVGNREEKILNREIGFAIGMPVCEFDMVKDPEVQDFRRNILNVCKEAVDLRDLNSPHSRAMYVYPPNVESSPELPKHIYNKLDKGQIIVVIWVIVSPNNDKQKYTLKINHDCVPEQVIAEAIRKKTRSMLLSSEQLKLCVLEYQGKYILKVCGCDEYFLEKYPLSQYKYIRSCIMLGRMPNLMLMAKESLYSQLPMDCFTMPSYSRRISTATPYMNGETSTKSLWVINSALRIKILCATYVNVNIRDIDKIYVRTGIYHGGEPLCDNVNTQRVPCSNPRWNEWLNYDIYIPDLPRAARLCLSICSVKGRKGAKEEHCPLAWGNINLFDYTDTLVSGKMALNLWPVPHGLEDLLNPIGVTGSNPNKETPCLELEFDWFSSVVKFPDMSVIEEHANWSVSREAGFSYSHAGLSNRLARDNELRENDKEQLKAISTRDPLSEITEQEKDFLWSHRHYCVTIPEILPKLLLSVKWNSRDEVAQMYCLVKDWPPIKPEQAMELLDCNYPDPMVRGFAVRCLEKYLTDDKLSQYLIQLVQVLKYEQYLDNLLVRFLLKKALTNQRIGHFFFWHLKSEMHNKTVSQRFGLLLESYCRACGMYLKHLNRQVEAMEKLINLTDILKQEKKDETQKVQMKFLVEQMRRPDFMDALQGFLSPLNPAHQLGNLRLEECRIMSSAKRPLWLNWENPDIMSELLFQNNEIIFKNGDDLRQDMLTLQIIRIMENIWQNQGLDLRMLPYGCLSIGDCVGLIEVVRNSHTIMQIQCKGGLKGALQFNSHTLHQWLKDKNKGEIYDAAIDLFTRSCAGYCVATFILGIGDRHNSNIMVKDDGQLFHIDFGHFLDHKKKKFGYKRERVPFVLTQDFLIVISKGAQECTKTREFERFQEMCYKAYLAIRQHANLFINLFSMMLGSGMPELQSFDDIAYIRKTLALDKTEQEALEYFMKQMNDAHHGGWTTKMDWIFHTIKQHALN

## O=C(CCCCCCC(=O)Nc1ccccc1)NO
DOHH-2 [1]
  Activity: Active
DOHH-2 [2]
  Activity: Active
DOHH-2 [3]
  Activity: Active
OCI-Ly3 [4]
  Activity: Active
DOHH-2 [5]
  Activity: Active

## COc1ccc(-c2cc(OCCN(C)c3ncc(C(=O)NO)cn3)c3ncnc(C)c3c2)cn1
[6]
  inhibition: Active
[7]
  inhibition: Active
SU-DHL10
  IC50: 9.7 nM
[8]
  inhibition: Active
SUD4 [9]
  IC50: 7.6 nM
[10]
  inhibition: Active
[11]
  inhibition: Active
SU-DHL-8
  IC50: 6.4 nM
SU-DHL-6
  IC50: 6.5 nM
[12]
  inhibition: Active
[13]
  inhibition: Active
OCI-Ly3 [14]
  Activity: Dde
WSUDLCL2
  IC50: 16 nM
[15]
  inhibition: Active
[16]
  inhibition: Active
SU-DHL-5
  IC50: 3.6 nM
SUD4 [17]
  Activity: Active
[18]
  inhibition: Active
KARPAS-422
  IC50: 21 nM
OCI-Ly3 [19]
  Activity: Active
[20]
  inhibition: Active
[21]
  inhibition: Active
OCI-LY19
  IC50: 19.2 nM
[22]
  inhibition: Active
DOHH-2 [23]
  IC50: 7.7 nM
[24]
  IC50: 7.9 nM
DOHH-2 [25]
  Activity: Active
Pfeiffer
  IC50: 5.3 nM
U2932
  IC50: 17.7 nM
[26]
  inhibition: Active
[27]
  inhibition: Active
[28]
  inhibition: Active
OCI-Ly7
  IC50: 5.6 nM
[29]
  inhibition: Active
DOHH-2 [30]
  Activity: Active
[31]
  inhibition: Active
DOHH-2 [32]
  Activity: Dde
OCI-Ly3 [33]
  Activity: Active
WSU-NHL
  IC50: 5.2 nM
OCI-Ly3 [34]
  IC50: 3.6 nM
Toledo
  IC50: 5.6 nM
DOHH-2 [35]
  Activity: Dde
[36]
  inhibition: Active

## CS(=O)(=O)N1CCN(Cc2cc3nc(-c4cccc5[nH]ncc45)nc(N4CCOCC4)c3s2)CC1
DOHH-2 [2]
  Activity: Active
[37]
  inhibition: Active
DOHH-2 [3]
  Activity: Active
[38]
  inhibition: Active
[39]
  inhibition: Active
OCI-Ly3 [4]
  Activity: Active
DOHH-2 [5]
  Activity: Active
[40]
  inhibition: Active
